One data set deals with Anas platyrhynchos. The settings on record: reproductive.
In the next data set the test system is Apis mellifera. The settings on record: acute, duration: 48 hours, mortality.
The test system of the next data set is Canidae. The settings on record: subchronic; duration: 90 days; oral; Dog Other; clinical signs.
The next data set concerns Coturnix japonica. As to conditions: acute; oral; mortality.
For the next data set, the system named is Daphnia magna. As to conditions: chronic/long-term; duration: 21 days; reproduction.
Another data set deals with Hypoaspis aculeifer. The settings on record: acute; duration: 14 days.
A further data set concerns Lepomis macrochirus. The settings on record: acute; duration: 96 hours; mortality.
The next data set concerns Oncorhynchus mykiss. As to conditions: chronic/long-term; duration: 56 days; behavior.
The test system of another data set is Rattus norvegicus. As to conditions: for NOAEL: reproduction developmental.
The next data set relates to Tagia sp. The settings on record: chronic/long-term; duration: 56 days; body weight.
The test system of the next data set is Aphidius rhopalosiphi. Nature of the data set: LR50; higher = less toxic. The settings on record: not reported; mortality.

≈ marks a conversion by molar mass, not a printed value.

The term NOAEL denotes the highest tested level that showed no adverse finding. For orientation: LC50 means the concentration that kills 50% of the test population. Take `CNC(=O)Oc1cc(C)c(SC)c(C)c1` [Methiocarb]: the NOAEL amounted to 4.51 mg/kg-day in the data set with Anas platyrhynchos, 0.25 mg/kg-day with Canidae, 4.3 mg/kg-day in the data set with Rattus norvegicus (body weight) and 0.5 mg/kg-day in the data set with Rattus norvegicus (clinical signs). The LD50 is 0.23 µg/piece in the data set with Apis mellifera (dermal); 0.08 µg/piece in the data set with Apis mellifera (oral, unspecified); 5 mg/kg-day in the data set on Coturnix japonica; under 50 mg/kg-day with Rattus norvegicus (acute, oral, mortality). For the same compound, the NOEC in the data set with Daphnia magna amounted to 0.0001 mg/L; in the data set on Hypoaspis aculeifer it was 10.1 mg/kg; in the data set with Oncorhynchus mykiss it was 0.05 mg/L; in the data set with Tagia sp., 0.08 mg/kg. Also, the LC50 in the data set on Lepomis macrochirus is 0.65 µg/mL (≈ 2.88 µM). This compound also came in with an LR50 in the data set with Aphidius rhopalosiphi of 8.5 g/ha.

Source of the values: EPA's ToxValDB 9.5 (doi:10.2903/j.efsa.2018.5429).
